Test results as given in article PMC12765074, “Mechanistic insights into enterocin C targeting the undecaprenyl phosphate recycling protein BacA” (The Journal of Biological Chemistry, 2025).
Several values for one entry are separate records, joined by “and”; a condition that tells them apart may be missing. Equal values may be shown once. Marks after values point to notes of the source that are not given here.

Assays:
[1] = system: E. faecalis EfΔbacA cells expressing catalytically inactive variants of BacAef (E20A, S26A, R172A); experiment: spot-on-lawn assay, catalytic site mutants; format: cell-based, Enterococcus faecalis
BacAef [2] = biological target: T1, BacAef (Enterococcus faecalis, UniProt A0ACD6TE02); experiment: UppS-coupled C55-PP phosphatase assay in liposomes, BacAef; format: biochemical; settings: DOPC:DOPG:DOPE liposomes, 20 mM HEPES pH 7.5, 37 °C, 10 min, TLC
Experimental: (§2) The reconstitution of BacA and PgpB in liposomes was achieved through adapted protocols previously described ([48]). Liposomes were prepared by rehydrating a lipid film of DOPC: DOPG: DOPE (3 mg: 0.75 mg: 1.25 mg) after 4 h of desiccation by adding 1 ml of buffer (20 mM HEPES, pH 7.5, 50 mM NaCl, 15% glycerol). […] The lipid suspension underwent 10 freeze-thaw cycles in liquid nitrogen and was extruded through a 100 nm polycarbonate membrane (Millipore). Protein reconstitution was performed by destabilizing the liposomes with 5.5 mM Triton X-100 for 15 min. The protein was added at a final concentration of 15 μg/ml and the mixture was incubated at 4 °C for 15 min.
(§3) The liposomes were used to measure the C55-PP phosphatase activity of BacA in a membrane environment as follows. For each kinetic assay, 5 μl of a reaction mixture containing 20 μM C15-PP, 20 μM [^14C]C5-PP, 180 μM C5-PP in 20 mM HEPES, pH 7.5, 50 mM NaCl, and 15% glycerol were mixed with 5 μl of protein-free liposomes (as a control) or BacA-containing liposomes. The mixture was then supplemented with UppS at a final concentration of 0.2 mg/ml to initiate the enzymatic synthesis of C55-PP. The EntC peptides were added at various concentrations from a water solution. […] Substrates and products were separated and quantified by thin-layer chromatography as previously described for C55-PP phosphatase assay in detergent.

[3] = liposome permeabilisation assay (BCECF), protein-free; format: biochemical; settings: 5 μM EntC, internal pH 8, external pH 6
PgpB-liposomes = experiment: proteoliposome permeabilisation assay (BCECF), PgpB-liposomes; format: biochemical, Escherichia coli; settings: EntC
BacAef [4] = biological target: T1, BacAef; experiment: ITC, BacAef; format: binding; settings: ITC, 20 °C
Experimental: ITC experiments were performed with an ITC200 isothermal titration calorimeter from MicroCal (Malvern Panalytical, Malvern, UK). The experiments were carried out at 20 °C. The protein concentration in the microcalorimeter cell (0.2 ml) was 33 μM. Nineteen 2-μl injections of peptides at 400 μM were performed at intervals of 240 s while stirring at 500 rpm. To limit buffer mismatching effect between the cell and the syringe, and the heat-of-dilution effect for having glycerol in the protein solution, the latter were extensively dialyzed, prior to the ITC measurement, in a buffer containing 20 mM Tris-HCl pH 7.4, 200 mM NaCl, 0.1% DDM, to remove glycerol. Then, the dialysis buffer was used to dilute the EntC peptides to further limit buffer mismatching. The experimental data were fitted to theoretical titration curves with the software supplied by MicroCal (ORIGIN). This software uses the relationship between the heat generated by each injection and ΔH (enthalpy change in kcal/mol), Ka (the association binding constant in M^−1), n (the number of binding sites), total protein concentration and free and total ligand concentrations.

BacAef K209A = BacAef K209A (Enterococcus faecalis, UniProt A0ACD6TE02, K221A); experiment: ITC, BacAef K209A; format: binding; settings: 20 °C
Experimental: (§1) The experiments were carried out at 20 °C.

BacAef K209A D110A D106A = experiment: ITC, BacAef K209A D110A D106A; format: binding, Enterococcus faecalis; settings: 20 °C, 400 μM into [BacAef K209A D110A D106A] 33 μM, pH 7.4, 0.1% DDM, at least triplicate
Experimental: as §1

[5] = system: E. faecalis EfΔbacA cells expressing BacAef; experiment: survival test; format: cell-based, Enterococcus faecalis; settings: 0.5 μM EntC, 30 min
[6] = system: E. faecalis EfΔbacA cells expressing BacAef R172A; experiment: survival test; format: cell-based, Enterococcus faecalis; settings: 0.5 μM EntC, 30 min, 37 °C, p ≤ 0.0001, three experiments
[7] = system: E. faecalis EfΔbacA cells expressing BacAef D110A; experiment: survival test; format: cell-based, Enterococcus faecalis; settings: 0.5 μM EntC, 30 min, 37 °C, three experiments
[8] = system: E. faecalis EfΔbacA cells expressing BacAef K209A; experiment: survival test; format: cell-based, Enterococcus faecalis; settings: 0.5 μM EntC, 30 min, 37 °C, p ≤ 0.0001, three experiments
[9] = system: E. faecalis EfΔbacA cells expressing BacAef K209A D110A; experiment: survival test; format: cell-based, Enterococcus faecalis; settings: 0.5 μM EntC, 30 min, 37 °C, p ≤ 0.001, three experiments
[10] = system: E. faecalis EfΔbacA cells expressing BacAef D106A D110A; experiment: survival test; format: cell-based, Enterococcus faecalis; settings: 0.5 μM EntC, 30 min, 37 °C, three experiments
BacAec = BacAec (Escherichia coli, UniProt P60932); settings: highest concentration tested 100 μM
Chain of BacAec (P60932 whole entry): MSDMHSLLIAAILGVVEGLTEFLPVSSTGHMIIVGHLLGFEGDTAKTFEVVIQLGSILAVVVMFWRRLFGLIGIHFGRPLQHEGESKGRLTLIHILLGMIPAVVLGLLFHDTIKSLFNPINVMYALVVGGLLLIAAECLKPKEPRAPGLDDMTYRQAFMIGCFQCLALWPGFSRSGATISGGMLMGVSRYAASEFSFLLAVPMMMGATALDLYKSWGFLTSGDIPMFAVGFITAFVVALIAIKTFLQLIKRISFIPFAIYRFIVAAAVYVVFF
Experimental: as §2, §3

Enterocin C [EntC]
susceptibility of EfΔbacA expressing catalytic site mutant alleles [1]: restored with a plasmid expressing wild-type bacAef or any of the three catalytic site mutant alleles, although a slight decrease of the susceptibility was observed with R172A variant
IC50 (BacAef [2]): 1200 ± 100 nM
membrane permeabilization of protein-free liposomes [3]: did not affect protein-free liposomes
membrane permeabilization of PgpB-liposomes (PgpB-liposomes): no permeabilization effect
-TΔS (BacAef [4]; into [BacAef] 33 μM): 14.1 kcal/mol
ΔG (BacAef [4]; into [BacAef] 33 μM): -9.0 kcal/mol
ΔH (BacAef [4]; into [BacAef] 33 μM): -23.1 kcal/mol
Kd (BacAef [4]; peptides 400 μM into [BacAef] 33 μM, 20 mM Tris-HCl pH 7.4, 200 mM NaCl, 0.1% DDM, at least triplicate): 196 ± 47 nM
n (BacAef [4]; peptides 400 μM into [BacAef] 33 μM, pH 7.4, 0.1% DDM, at least triplicate): 0.90 ± 0.01
n (BacAef K209A; 400 μM into [BacAef K209A] 33 μM): 0.46 ± 0.02
Kd (BacAef K209A; 400 μM into [BacAef K209A] 33 μM, pH 7.4, 0.1% DDM, at least triplicate): 1840 ± 335 nM
-TΔS (BacAef K209A; into [BacAef K209A]): 0.1 kcal/mol
ΔH (BacAef K209A; into [BacAef K209A]): -8.3 kcal/mol
KD (BacAef K209A D110A D106A): No binding
% of survival ([5]; 37 °C, BHI, CFU vs same cells without EntC, three independent experiments): <1%
cells killed ([5]; exponentially growing cells expressing wild-type BacAef): more than 99%
% of survival [6]: 7.8% and 7.8 ± 0.8 ^d %
% of survival [7]: 2.8 ± 1.0%
% of survival [8]: 11% and 11 ± 1.0 ^d %
% of survival [9]: 7.6 ± 1.0 ^e %
% of survival [10]: 4.0 ± 3.0%
inhibition of BacAec in liposomes (BacAec): no inhibitory effect
